US10913727B2, “Modulators of the integrated stress pathway” (Calico Life Sciences LLC, priority 2016, dated 2021)
pEC50: −log10 of the molar value.

Test system: HEK293T cells carrying the ATF4 luciferase reporter
Experiment: ATF4-Luc assay, in vitro model of Vanishing Cell White Matter Disease (VWMD)
Type: cell-based
Details: Homo sapiens, HEK-293T, 1 μg/mL tunicamycin, 7 hours, One Glo luminescence
In short: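 Compound at 200 nM and tunicamycin at 1 μg/mL were given together for 7 h to HEK293T cells stably transduced with an ATF4 5′-UTR-driven firefly luciferase reporter. Read-out by luminescence, reported as EC50.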

Cc1ccc(C(=O)NC23CC(NC(=O)COc4ccc(Cl)c(F)c4)(C2)C3)o1 [Compound 555, N-{3-[2-(4-chloro-3-fluorophenoxy)acetamido]bicyclo[1.1.1]pentan-1-yl}-5-methylfuran-2-carboxamide]
pEC50: 6.60 to 7.30

Cc1occc1C(=O)NC12CC(NC(=O)COc3ccc(Cl)c(F)c3)(C1)C2 [Compound 556, N-{3-[2-(4-chloro-3-fluorophenoxy)acetamido]bicyclo[1.1.1]pentan-1-yl}-2-methylfuran-3-carboxamide]
pEC50: 5.70 to 6.00

COc1cscc1C(=O)NC12CC(NC(=O)COc3ccc(Cl)c(F)c3)(C1)C2 [Compound 557, N-{3-[2-(4-chloro-3-fluorophenoxy)acetamido]bicyclo[1.1.1]pentan-1-yl}-4-methoxythiophene-3-carboxamide]
pEC50: < 5.70

Cc1ncsc1C(=O)NC12CC(NC(=O)COc3ccc(Cl)c(F)c3)(C1)C2 [Compound 558, N-{3-[2-(4-chloro-3-fluorophenoxy)acetamido]bicyclo[1.1.1]pentan-1-yl}-4-methyl-1,3-thiazole-5-carboxamide]
pEC50: 5.70 to 6.00

Cc1nc(C(=O)NC23CC(NC(=O)COc4ccc(Cl)c(Cl)c4)(C2)C3)cs1 [Compound 559, N-{3-[2-(3,4-dichlorophenoxy)acetamido]bicyclo[1.1.1]pentan-1-yl}-2-methyl-1,3-thiazole-4-carboxamide]
pEC50: > 7.30

O=C(COc1ccc(Cl)c(F)c1)NC12CCC(NC(=O)c3ccccc3F)(CC1)C[C@@H]2O [Compound 560, N-{(3S)-4-[2-(4-chloro-3-fluorophenoxy)acetamido]-3-hydroxybicyclo[2.2.2]octan-1-yl}-2-fluorobenzamide]
pEC50: 6.60 to 7.30

Cc1cc2c(C(=O)NC34CC(NC(=O)COc5ccc(Cl)c(F)c5)(C3)C4)nccn2n1 [Compound 561, N-{3-[2-(4-chloro-3-fluorophenoxy)acetamido]bicyclo[1.1.1]pentan-1-yl}-2-methylpyrazolo[1,5-a]pyrazine-4-carboxamide]
pEC50: < 5.70

Cc1cc2c(C(=O)NC34CC(NC(=O)COc5ccc(Cl)c(Cl)c5)(C3)C4)nccn2n1 [Compound 562, N-{3-[2-(3,4-dichlorophenoxy)acetamido]bicyclo[1.1.1]pentan-1-yl}-2-methylpyrazolo[1,5-a]pyrazine-4-carboxamide]
pEC50: 6.00 to 6.60

O=C(COc1ccc(Cl)c(F)c1)NC12CC(NC(=O)c3cnc(C(F)(F)F)s3)(C1)C2 [Compound 563, N-{3-[2-(4-chloro-3-fluorophenoxy)acetamido]bicyclo[1.1.1]pentan-1-yl}-2-(trifluoromethyl)-1,3-thiazole-5-carboxamide]
pEC50: > 7.30

Cc1cc(C(=O)NC23CC(NC(=O)COc4ccc(Cl)c(F)c4)(C2)C3)sn1 [Compound 564, N-{3-[2-(4-chloro-3-fluorophenoxy)acetamido]bicyclo[1.1.1]pentan-1-yl}-3-methyl-1,2-thiazole-5-carboxamide]
pEC50: 6.60 to 7.30

Cn1nc(C(=O)NC23CCC(NC(=O)COc4ccc(Cl)c(F)c4)(CC2)C(O)C3)cc1C(F)(F)F (stereo not drawn) [Compound 565, N-{4-[2-(4-chloro-3-fluorophenoxy)acetamido]-3-hydroxybicyclo[2.2.2]octan-1-yl}-1-methyl-5-(trifluoromethyl)-1H-pyrazole-3-carboxamide]
pEC50: 6.60 to 7.30

O=C(COc1ccc(Cl)c(F)c1)NC12CCC(NC(=O)c3coc(C(F)(F)F)c3)(CC1)CC2O (stereo not drawn) [Compound 566, N-{4-[2-(4-chloro-3-fluorophenoxy)acetamido]-3-hydroxybicyclo[2.2.2]octan-1-yl}-5-(trifluoromethyl)furan-3-carboxamide]
pEC50: > 7.30

CCc1noc(C(=O)NC23CCC(NC(=O)COc4ccc(Cl)c(F)c4)(CC2)C(O)C3)n1 (stereo not drawn) [Compound 567, N-{4-[2-(4-chloro-3-fluorophenoxy)acetamido]-3-hydroxybicyclo[2.2.2]octan-1-yl}-3-ethyl-1,2,4-oxadiazole-5-carboxamide]
pEC50: 6.60 to 7.30

COCc1cncc(C(=O)NC23CC(NC(=O)COc4ccc(Cl)c(F)c4)(C2)C3)c1 [Compound 568, N-{3-[2-(4-chloro-3-fluorophenoxy)acetamido]bicyclo[1.1.1]pentan-1-yl}-5-(methoxymethyl)pyridine-3-carboxamide]
pEC50: 6.60 to 7.30

COCc1cncc(C(=O)NC23CC(NC(=O)COc4ccc(Cl)c(Cl)c4)(C2)C3)c1 [Compound 569, N-{3-[2-(3,4-dichlorophenoxy)acetamido]bicyclo[1.1.1]pentan-1-yl}-5-(methoxymethyl)pyridine-3-carboxamide]
pEC50: > 7.30

O=C(COc1ccc(Cl)cc1)NC12CC(NC(=O)c3ccc(OC(F)(F)F)nc3)(C1)C2 [Compound 570, N-{3-[2-(4-chlorophenoxy)acetamido]bicyclo[1.1.1]pentan-1-yl}-6-(trifluoromethoxy)pyridine-3-carboxamide]
pEC50: 6.60 to 7.30

CCc1cc(C(=O)NC23CCC(NC(=O)COc4ccc(Cl)c(F)c4)(C2)C3)n(C)n1 [Compound 571, N-{4-[2-(4-chloro-3-fluorophenoxy)acetamido]bicyclo[2.1.1]hexan-1-yl}-3-ethyl-1-methyl-1H-pyrazole-5-carboxamide]
pEC50: 6.00 to 6.60

Cc1nc(C(=O)NC23CCC(NC(=O)COc4ccc(Cl)c(F)c4)(CC2)[C@@H](O)C3)cs1 [Compound 572, N-{(3S)-4-[2-(4-chloro-3-fluorophenoxy)acetamido]-3-hydroxybicyclo[2.2.2]octan-1-yl}-2-methyl-1,3-thiazole-4-carboxamide]
pEC50: 6.60 to 7.30

O=C(COc1ccc(Cl)c(F)c1)NC12CC(NC(=O)c3cnco3)(C1)C2 [Compound 573, N-{3-[2-(4-chloro-3-fluorophenoxy)acetamido]bicyclo[1.1.1]pentan-1-yl}-1,3-oxazole-5-carboxamide]
pEC50: 5.70 to 6.00

O=C(COc1ccc(Cl)c(F)c1)NC12CCC(NC(=O)c3ccc(OC(F)F)nc3)(C1)C2 [Compound 574, N-{4-[2-(4-chloro-3-fluorophenoxy)acetamido]bicyclo[2.1.1]hexan-1-yl}-6-(difluoromethoxy)pyridine-3-carboxamide]
pEC50: 6.60 to 7.30

Cc1noc(C(=O)NC23CCC(NC(=O)COc4ccc(Cl)c(F)c4)(CC2)[C@@H](O)C3)n1 [Compound 575, N-{(3S)-4-[2-(4-chloro-3-fluorophenoxy)acetamido]-3-hydroxybicyclo[2.2.2]octan-1-yl}-3-methyl-1,2,4-oxadiazole-5-carboxamide]
pEC50: > 7.30

COc1cc(C(=O)NC23CCC(NC(=O)COc4ccc(Cl)c(F)c4)(CC2)C(O)C3)on1 (stereo not drawn) [Compound 576, N-{4-[2-(4-chloro-3-fluorophenoxy)acetamido]-3-hydroxybicyclo[2.2.2]octan-1-yl}-3-methoxy-1,2-oxazole-5-carboxamide]
pEC50: 6.60 to 7.30

CC(C)c1cc(C(=O)NC23CCC(NC(=O)COc4ccc(Cl)c(F)c4)(CC2)C(O)C3)on1 (stereo not drawn) [Compound 577, N-{4-[2-(4-chloro-3-fluorophenoxy)acetamido]-3-hydroxybicyclo[2.2.2]octan-1-yl}-3-(propan-2-yl)-1,2-oxazole-5-carboxamide]
pEC50: 6.60 to 7.30

Cc1cc(C(=O)NC23CCC(NC(=O)COc4ccc(Cl)c(F)c4)(CC2)C(O)C3)sn1 (stereo not drawn) [Compound 578, N-{4-[2-(4-chloro-3-fluorophenoxy)acetamido]-3-hydroxybicyclo[2.2.2]octan-1-yl}-3-methyl-1,2-thiazole-5-carboxamide]
pEC50: > 7.30

O=C(COc1ccc(Cl)c(F)c1)NC12CCC(NC(=O)c3ccc(OCC(F)(F)F)nc3)(CC1)CC2O (stereo not drawn) [Compound 579, N-{4-[2-(4-chloro-3-fluorophenoxy)acetamido]-3-hydroxybicyclo[2.2.2]octan-1-yl}-6-(2,2,2-trifluoroethoxy)pyridine-3-carboxamide]
pEC50: 6.60 to 7.30

CC(C)(C)OC(=O)NCc1ccnc(C(=O)NC23CC(NC(=O)COc4ccc(Cl)c(Cl)c4)(C2)C3)c1 [Compound 580, tert-butyl {[2-({3-[2-(3,4-dichlorophenoxy)acetamido]bicyclo[1.1.1]pentan-1-yl}carbamoyl)pyridin-4-yl]methyl}carbamate]
pEC50: < 5.70

CC(C)(C)c1cc(C(=O)NC23CCC(NC(=O)COc4ccc(Cl)c(F)c4)(CC2)[C@@H](O)C3)on1 [Compound 581, 3-tert-butyl-N-{(3S)-4-[2-(4-chloro-3-fluorophenoxy)acetamido]-3-hydroxybicyclo[2.2.2]octan-1-yl}-1,2-oxazole-5-carboxamide]
pEC50: > 7.30

Cn1nc(C(F)(F)F)cc1C(=O)NC12CC(NC(=O)COc3ccc(Cl)c(F)c3)(C1)C2 [Compound 582, N-{3-[2-(4-chloro-3-fluorophenoxy)acetamido]bicyclo[1.1.1]pentan-1-yl}-1-methyl-3-(trifluoromethyl)-1H-pyrazole-5-carboxamide]
pEC50: 6.60 to 7.30

O=C(COc1ccc(Cl)c(F)c1)NC12CC(NC(=O)c3cnc(C4CC4)o3)(C1)C2 [Compound 583, N-{3-[2-(4-chloro-3-fluorophenoxy)acetamido]bicyclo[1.1.1]pentan-1-yl}-2-cyclopropyl-1,3-oxazole-5-carboxamide]
pEC50: 6.60 to 7.30

CCc1cc(C(=O)NC23CC(NC(=O)COc4ccc(Cl)c(Cl)c4)(C2)C3)n(C)n1 [Compound 584, N-{3-[2-(3,4-dichlorophenoxy)acetamido]bicyclo[1.1.1]pentan-1-yl}-3-ethyl-1-methyl-1H-pyrazole-5-carboxamide]
pEC50: > 7.30

Cc1ncc(C(=O)NC23CC(NC(=O)COc4ccc(Cl)c(Cl)c4)(C2)C3)s1 [Compound 585, N-{3-[2-(3,4-dichlorophenoxy)acetamido]bicyclo[1.1.1]pentan-1-yl}-2-methyl-1,3-thiazole-5-carboxamide]
pEC50: 6.60 to 7.30

O=C(COc1ccc(Cl)c(F)c1)NC12CC(NC(=O)c3ccc4ccccc4n3)(C1)C2 [Compound 586, N-{3-[2-(4-chloro-3-fluorophenoxy)acetamido]bicyclo[1.1.1]pentan-1-yl}quinoline-2-carboxamide]
pEC50: > 7.30

O=C(COc1ccc(Cl)c(F)c1)NC12CC(NC(=O)c3cnc4ccccc4c3)(C1)C2 [Compound 587, N-{3-[2-(4-chloro-3-fluorophenoxy)acetamido]bicyclo[1.1.1]pentan-1-yl}quinoline-3-carboxamide]
pEC50: 6.60 to 7.30
